Data on 1 molecule can be found in patent US9370503B1, “Compounds for treating ocular diseases” (priority 2015, dated 2016).

Data set [1] in a line: Hypoxia-induced damage in HUVECs (MTT). To be noted: human, HUVECs, 10 μg/ml, P<0.01, read-out: decrease of viability of HUVECs in hypoxic condition. It is filed as cell-based, human. The procedure: (§1) ARPE-19 cells were grown in DMEM/F12 medium supplemented with 10% FBS, 100 units/ml penicillin G, and 100 μg/ml streptomycin sulfate. HUVECs were grown in vascular cell basal medium supplemented with endothelial cell growth kit. Cells were incubated in a humidified incubator at 37° C. under 5% CO2 and 95% air.
(§2) MTT assay was used to measure the viability of ARPE-19 cells and HUVECs. 2×10^5 ARPE-19 cells or 5×10^4 HUVECs were seeded in 96-well plates (100 μl/well) and allowed to grow overnight. Negative control was prepared by adding 100 μl medium without cells. The cells were then treated with fresh medium with a compound of Formula (II) (“(II)”) (0.03, 0.1, 0.3, 1, 3 and 10 μg/ml) and/or oxidants (NaIO3, H2O2, t-BHP and NaN3) for 12, 24, or 72 hours (200 μl/well). The vehicle control group was treated with vehicle. 20 μl MTT (5 mg/ml) was added to wells, and incubated for another 4 h. After incubation, the medium was discarded and 100 μl DMSO was added to solubilize formazan produced from MTT by the viable cells. Absorbance was measured at 570 nm using a microplate reader (Bio-Rad Laboratories, Inc., CA). Cells viability was calculated according to the following formula: Viability of cells (%)=(absorbance in tested sample−absorbance in negative control)/(absorbance in vehicle control−absorbance in negative control)×100%.
(§3) Cells were allowed to attach overnight, and then exposed to (II) or vehicle under hypoxic condition for 72 h. Hypoxic conditions (1% O2, 5% CO2 and 94% N2) were maintained by using a temperature and humidity controlled environmental C-chamber by O2 and CO2 controllers (Proox Model 110 and Pro CO2 Model 120, Bio Spherix Ltd., Redfield, N.Y., USA) with N2 and CO2 gas sources.

In data set [2] the test system is HUVECs. The experiment in a line: Hypoxia-induced damage in HUVECs (MTT). It is filed as cell-based, human. To be noted: 72 h. The procedure:
as §1, §2, §3

The next data set has as its system ARPE-19 cells. The experiment in a line: NaIO3-induced injury in ARPE-19 cells (MTT). It is filed as cell-based, human. The settings on record: 72 h. The procedure:
as §1, §2

Data set [3] has as its system HUVECs. The experiment in a line: NaIO3-induced injury in HUVECs (MTT). It is filed as cell-based, human. To be noted: 3 and 10 μg/ml compound, 72 hours. The procedure: as §1, §2
Data set [4] concerns HUVECs. The experiment in a line: NaN3-induced injury in HUVECs (MTT). The settings on record: 72 hours. It is filed as cell-based, human. Here is the method:
as §1, §2

The test system of data set [5] is rat's retinal function after ischemic insult. Nature of the data set: b-wave recovery of retinal function after ischemic insult (ERG). It is filed as in vivo. The settings on record: 1% instilled topically. Here is the method: The retinal ischemia experiment has been described previously (Chiou et al., J. Ocular Pharmacol. 9:179-185, 1993, and Chiou et al., J. Ocular Pharmacol. 10:493-498, 1994). Electroretinograms (ERG) were carried out to assess the retinal function prior to and after the ischemic insult. ERGs were recorded using Ag/AgCl electrodes placed in contact with the cornea. One stainless steel needle was inserted subcutaneously between the two eyes as a reference electrode, and another needle was inserted subcutaneously into the neck as a ground electrode. A photostimulator (Grass PS22 Flash) was used to produce flashes of light 5 inches from the eye, and the ERG potentials were recorded on a polygraph. The ERG system was purchased from LKC Technologies, Inc. (Gaithersburg, Md.). A single flash (10 msec) of white light stimuli was used to evoke ERG a- and b-waves. Peak b-wave amplitudes were measured from the trough of the a-wave to the peak of the b-wave.
Long-Evans rats (200-250 g), dark-adapted at least 2 hours, were anaesthetized intramuscularly with ketamine (35 mg/kg) plus xylazine (5 mg/kg). Half of the initial dose was administrated at one hour intervals to maintain adequate anesthesia. The pupils were dilated with 1% tropicamide (50 μl) for ERG experiments. Retinal ischemia was produced by occlusion of the central retina and posterior ciliary arteries using a ligature placed around the optic nerve and posterior ciliary artery. The ligature was drawn tightly through a micropipette tip placed at the base of the eyeball socket to occlude the retinal vessels for 30 min. After 30 min of retinal ischemia, the ligature was liberated and the retinal arteries allowed to reperfuse. ERGs were measured at 30, 60, 90, 120, 180 and 240 min thereafter. The compounds and vehicle were administered topically before occlusion of the central retinal arteries.

The test system of data set [6] is laser induced AMD rat model. The experiment in a line: Laser induced AMD rat model, CNV area by fluorescein angiography. It is filed as in vivo. The settings on record: (II) instillation, laser rupture of Bruch's membrane, vs control about 2.5 mm^2. Here is the method:
The rats were randomly divided into 2 groups. Control group was instilled with vehicle (30% HP-β-CD solution). […] Both eyes of all rats were instilled with 1 drop of ophthalmic solutions 3 times a day for 1 week before and 4 weeks after laser induced injury. The rats were anesthetized for all procedures with intramuscular injection of ketamine (35 mg/kg) and xylazine (5 mg/kg). The pupils were dilated with one drop each of 10 mg/ml atropine, and 25 mg/ml phenylephrine. The fundus was visualized by the VOLK super Pupil XL Biomicroscopy Lens (Keeler Instruments Inc., Broomall, Pa., USA). A double frequency Nd:YAG laser (Laserex LP3532; Lumenis Inc., Salt Lake City, Utah, USA) was used at 532 nm wavelength. Laser parameters were used by 100 μm spot size, 0.15-second exposure and 150-200 mw powers. Five laser spots were made to the ocular fundus at approximately equal distances around the optic nerves. […] Only laser spots with bubble formation were included in the study. Lesions with subretinal hemorrhage were excluded. Fluorescein angiography (FA) was performed after 2 and 4 weeks laser treatment with a digital fundus camera (TRC-50EX; TOPCON, Tokyo, Japan). 100 mg/ml fluorescein sodium salt was injected (0.5 ml/kg) through hypoglossal vein. Both early (under 2 minutes) and late (over 7 minutes) fluorescein phases were captured. […]

For the molecule `CC(C)=CCC/C(C)=C/Cc1c([C@@H]2CC(=O)c3c(cc(O)c(CC=C(C)C)c3O)O2)ccc(O)c1O` [Formula (II)], the cytotoxicity at 72 h, 10 μg/ml in data set [1] amounted to 97%. The figures for the “increase of viability of HUVECs in hypoxic condition” value with HUVECs [2] (0.03 μg/ml), with HUVECs [2] (0.1 μg/ml) and with HUVECs [2] (0.3 μg/ml) were 22%, 19% and 26%, respectively. Besides, in the data set with ARPE-19 cells (30 μg/ml NaIO3, 0.03, 1, 3 and 10 μg/ml compound, P<0.05), the “effect on viability in NaIO3-induced injury in ARPE-19 cells” value is “significantly reversed”. For the same molecule, the “reversal of viability in NaIO3-induced injury in ARPE-19 cells” value is listed as 24% in the data set with ARPE-19 cells (100 μg/ml NaIO3, 10 μg/ml compound) and 7% in the data set on ARPE-19 cells (300 μg/ml NaIO3, 3 μg/ml compound). In the data set on HUVECs [3], the “effect on NaIO3-induced injury in HUVECs” value is listed as “enhanced”. Further, the “enhancement of NaN3-induced injury in HUVECs” value in the data set on HUVECs [4] (0.3 mM NaN3, 3 μg/ml compound) stood at 75%; with HUVECs [4] (0.3 mM NaN3, 10 μg/ml compound), 95%; in the data set on HUVECs [4] (1 mM NaN3, 10 μg/ml compound) it was 75%; with HUVECs [4] (3 mM NaN3, 3 μg/ml compound) it was 44%; with HUVECs [4] (3 mM NaN3, 10 μg/ml compound), 71%. Also, in data set [5], the “potency in b-wave recovery” value is given as “about the same as 1% (I)”. The “duration of drug action on b-wave recovery” value in data set [5] (after drug application) was 120 min. Also, the “area of CNV formation” value in data set [6] was “significantly suppressed”.
